Laboratory results from patent US20230141863A1, “Small Molecule Inhibitors Targeting the Sodium Channel Tamoxifen Receptor and Uses Thereof” (Northwestern University, priority 2021, published 2023).

Assays:
[1] = biological target: Nav1.7 DII S969A and DIV D1761A (Homo sapiens, UniProt Q15858); test: Voltage clamp of Nav1.7 with alanine substitutions in DII and DIV; assay type: cell-based; details: range over DII S969A and DIV D1761A
Protocol: (§1) While no clear drug-receptor interactions were determined within Siteout, the S6 E220 side chains formed hydrogen bond interactions with the ether and amine moieties of the ND-Tam molecules found at Sitein. […] After structural alignment of the crystalized NavMs-Tam complex with the cryo EM Nav1.7+b1+b2 channel coordinates, the S6 side chain hydroxyl in DII (S969) and the carboxyl side chains in DIII (E1458) and DIV (D1761) observed in the human channel were nearly superimposable with E220 of the prokaryotic Nav subunits. In addition, the distances from the drug ether and amines were within acceptable distances (2.8-3.1 Å) for hydrogen bond formation for all three site chains (FIG. 2B). […]
(§2) Plasmids encoding the human version of channels Nav1.1, 1.6, and 1.7 were co-transfected with TRES GFP into HEK cell lines for whole-cell voltage clamp studies (American Type Culture Collection). […] Plasma membrane currents were recorded using borosilicate glass electrodes polished to resistances of […]. Sodium currents conducted by heterologously expressed Navs were recorded using the following solutions (in mM). […] Endogenous DRG sodium currents were recorded using an intracellular solution consisting of 70 CsCl, 70 CsF, 2 EGTA, 5 HEPES, and 5 NaCl; the pH was adjusted to 7.4 with CsOH. […]

human Nav1.7 = biological target: T1, human Nav1.7 (Homo sapiens, UniProt Q15858); test: Voltage clamp of heterologously expressed Nav1.7; assay type: cell-based; details: Hill fit, printed for ND-Tam and 4OH-Tam together
T1 construct: expressed in transfected cells; host or cells: HEK cells, transient transfection with lipofectamine
Protocol: as §1, §2

Chain of Nav1.7 DII S969A and DIV D1761A (Q15858 whole entry S969A, form open): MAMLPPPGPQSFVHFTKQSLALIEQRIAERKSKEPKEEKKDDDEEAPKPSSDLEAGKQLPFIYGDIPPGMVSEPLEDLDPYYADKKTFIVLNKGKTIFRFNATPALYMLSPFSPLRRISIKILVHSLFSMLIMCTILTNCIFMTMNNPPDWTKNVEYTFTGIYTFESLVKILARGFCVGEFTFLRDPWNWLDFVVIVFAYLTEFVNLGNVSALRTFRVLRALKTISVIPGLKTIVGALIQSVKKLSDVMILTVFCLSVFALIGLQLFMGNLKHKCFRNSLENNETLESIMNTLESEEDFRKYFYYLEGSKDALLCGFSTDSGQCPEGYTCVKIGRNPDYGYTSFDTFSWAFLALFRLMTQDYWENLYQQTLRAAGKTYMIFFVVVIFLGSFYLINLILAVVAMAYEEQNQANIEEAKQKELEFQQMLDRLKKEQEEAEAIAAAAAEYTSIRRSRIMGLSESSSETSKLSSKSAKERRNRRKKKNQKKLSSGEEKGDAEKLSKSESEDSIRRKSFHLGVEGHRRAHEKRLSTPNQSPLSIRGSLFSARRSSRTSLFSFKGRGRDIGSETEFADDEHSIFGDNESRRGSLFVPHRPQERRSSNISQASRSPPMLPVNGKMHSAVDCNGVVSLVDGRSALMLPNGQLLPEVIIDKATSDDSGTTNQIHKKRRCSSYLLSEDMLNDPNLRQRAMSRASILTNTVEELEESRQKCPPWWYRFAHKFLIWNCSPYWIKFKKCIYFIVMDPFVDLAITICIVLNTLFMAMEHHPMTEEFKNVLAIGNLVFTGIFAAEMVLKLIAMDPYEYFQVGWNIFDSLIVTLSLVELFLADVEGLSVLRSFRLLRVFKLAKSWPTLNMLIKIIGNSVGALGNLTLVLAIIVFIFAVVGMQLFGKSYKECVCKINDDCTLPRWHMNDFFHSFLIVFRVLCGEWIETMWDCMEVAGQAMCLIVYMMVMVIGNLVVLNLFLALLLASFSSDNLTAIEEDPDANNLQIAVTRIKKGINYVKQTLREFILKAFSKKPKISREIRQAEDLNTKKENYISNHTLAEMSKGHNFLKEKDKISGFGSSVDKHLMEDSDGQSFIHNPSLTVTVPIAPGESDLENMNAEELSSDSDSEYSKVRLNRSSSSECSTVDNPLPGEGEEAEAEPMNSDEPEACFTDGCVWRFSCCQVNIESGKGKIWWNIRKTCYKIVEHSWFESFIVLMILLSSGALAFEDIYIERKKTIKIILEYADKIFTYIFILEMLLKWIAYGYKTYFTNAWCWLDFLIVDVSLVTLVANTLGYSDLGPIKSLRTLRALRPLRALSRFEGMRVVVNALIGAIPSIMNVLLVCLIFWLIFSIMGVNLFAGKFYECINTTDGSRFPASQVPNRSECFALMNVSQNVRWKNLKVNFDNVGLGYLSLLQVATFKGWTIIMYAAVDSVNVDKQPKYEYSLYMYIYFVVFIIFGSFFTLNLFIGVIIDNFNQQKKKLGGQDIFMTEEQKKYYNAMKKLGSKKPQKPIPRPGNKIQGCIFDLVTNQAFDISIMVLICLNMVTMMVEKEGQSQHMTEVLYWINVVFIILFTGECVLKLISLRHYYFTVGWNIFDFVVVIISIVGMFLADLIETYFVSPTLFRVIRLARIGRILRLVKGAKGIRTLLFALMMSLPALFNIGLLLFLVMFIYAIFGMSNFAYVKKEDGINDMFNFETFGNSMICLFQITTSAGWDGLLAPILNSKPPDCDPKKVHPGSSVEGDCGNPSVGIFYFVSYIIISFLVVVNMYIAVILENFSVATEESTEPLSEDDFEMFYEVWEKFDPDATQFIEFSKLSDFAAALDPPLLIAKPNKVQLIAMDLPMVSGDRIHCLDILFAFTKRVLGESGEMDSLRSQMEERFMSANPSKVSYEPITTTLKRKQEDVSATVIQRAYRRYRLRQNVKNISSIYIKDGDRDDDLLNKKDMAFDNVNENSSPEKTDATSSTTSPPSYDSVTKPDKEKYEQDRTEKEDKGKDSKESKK
T1 sequence (Q15858 whole entry): as the sequence (Q15858 whole entry S969A, form open) above, with A969S counted along it

In the case of CC/C(=C(\c1ccccc1)c1ccc(OCCNC)cc1)c1ccccc1 [ND-Tam, 2-[4-[(Z)-1,2-diphenylbut-1-enyl]phenoxy]-N-methylethanamine], the slope of concentration-dependence [1] is reported as 1.3-1.4 and the slope of concentration-dependence (human Nav1.7) is reported as 2.1.
